Consider 4 molecules from ChEMBL document CHEMBL5131481, “Topoisomerase IIα inhibitory and antiproliferative activity of dihydroxylated 2,6-diphenyl-4-fluorophenylpyridines: Design, synthesis, and structure-activity relationships” (Bioorg Med Chem Lett, 2022).

Test [1] has as its target DNA topoisomerase 2-alpha (Homo sapiens) (UniProt P11388). Nature of the test: Inhibition of topoisomerase 2alpha (unknown origin) assessed as relaxation of supercoiled plasmid pBR322 DNA at 100 uM relative to control.
Test [2] shares this target. The experiment in a line: Inhibition of topoisomerase 2alpha (unknown origin) assessed as relaxation of supercoiled plasmid pBR322 DNA at 20 uM relative to control.
A further test relates to DU-145. Nature of the test: Antiproliferative activity against human DU-145 cells assessed as inhibition of cell proliferation. The test is classed as functional, cell-based.
For a further test, the system named is T47D. Nature of the test: Antiproliferative activity against human T47D cells assessed as inhibition of cell proliferation. It is filed as functional, cell-based.
Another test has as its system HCT-15. The experiment in a line: Antiproliferative activity against human HCT-15 cells assessed as inhibition of cell proliferation. The test is classed as functional, cell-based.
The subject of a further test is HeLa. Nature of the test: Antiproliferative activity against human HeLa cells assessed as inhibition of cell proliferation. It is filed as functional, cell-based.

DNA topoisomerase 2-alpha (Homo sapiens), sequence (P11388 whole entry): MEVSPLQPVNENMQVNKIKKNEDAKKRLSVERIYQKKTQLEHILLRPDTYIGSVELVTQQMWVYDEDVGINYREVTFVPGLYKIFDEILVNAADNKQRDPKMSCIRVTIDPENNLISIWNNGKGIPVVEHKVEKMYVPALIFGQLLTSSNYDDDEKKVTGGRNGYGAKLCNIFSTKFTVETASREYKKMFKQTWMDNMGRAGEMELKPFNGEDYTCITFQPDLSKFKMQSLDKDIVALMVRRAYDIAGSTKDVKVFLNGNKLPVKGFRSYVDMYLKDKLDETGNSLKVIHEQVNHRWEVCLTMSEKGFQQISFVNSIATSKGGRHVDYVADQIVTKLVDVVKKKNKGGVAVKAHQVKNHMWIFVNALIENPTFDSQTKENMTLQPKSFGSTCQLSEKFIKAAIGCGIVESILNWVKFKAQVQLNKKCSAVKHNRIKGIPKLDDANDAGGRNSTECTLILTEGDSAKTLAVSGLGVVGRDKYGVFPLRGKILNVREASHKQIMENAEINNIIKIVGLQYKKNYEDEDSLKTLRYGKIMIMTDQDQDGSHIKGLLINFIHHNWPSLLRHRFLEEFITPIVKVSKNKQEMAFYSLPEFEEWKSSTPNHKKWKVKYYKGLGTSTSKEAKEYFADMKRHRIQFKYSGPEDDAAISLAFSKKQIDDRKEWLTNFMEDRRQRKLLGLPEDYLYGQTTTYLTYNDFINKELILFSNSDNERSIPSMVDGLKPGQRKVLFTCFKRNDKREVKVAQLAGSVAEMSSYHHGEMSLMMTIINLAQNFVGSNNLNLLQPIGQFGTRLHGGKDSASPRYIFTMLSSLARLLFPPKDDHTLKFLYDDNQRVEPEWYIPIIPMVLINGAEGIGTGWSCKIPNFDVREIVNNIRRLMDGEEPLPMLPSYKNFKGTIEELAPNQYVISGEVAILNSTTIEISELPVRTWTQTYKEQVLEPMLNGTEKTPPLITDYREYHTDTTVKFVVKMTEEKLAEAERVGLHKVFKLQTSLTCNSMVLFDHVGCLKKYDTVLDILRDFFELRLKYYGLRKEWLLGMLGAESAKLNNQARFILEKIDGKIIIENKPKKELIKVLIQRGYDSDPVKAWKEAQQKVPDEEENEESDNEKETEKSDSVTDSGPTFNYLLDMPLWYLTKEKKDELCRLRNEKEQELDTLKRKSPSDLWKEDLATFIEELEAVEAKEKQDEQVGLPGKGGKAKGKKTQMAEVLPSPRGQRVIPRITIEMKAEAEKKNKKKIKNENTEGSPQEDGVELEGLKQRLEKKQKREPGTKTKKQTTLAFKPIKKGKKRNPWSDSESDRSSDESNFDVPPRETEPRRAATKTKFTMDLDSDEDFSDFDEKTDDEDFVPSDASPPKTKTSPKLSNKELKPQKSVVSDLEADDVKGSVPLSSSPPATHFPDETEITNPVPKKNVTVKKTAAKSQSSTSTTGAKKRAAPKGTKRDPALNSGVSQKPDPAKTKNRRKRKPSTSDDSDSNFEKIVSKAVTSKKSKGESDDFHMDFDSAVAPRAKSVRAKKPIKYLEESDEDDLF

A word on the inhibition: it is the percentage by which the read-out fell short of the control. Usually IC50 stands for the concentration that gives 50% inhibition. Regarding `Oc1ccc(-c2cc(-c3ccccc3F)cc(-c3cccc(O)c3)n2)cc1`, the inhibition in test [1] was found to be 76.6%; in test [2], 42.1%. In addition, the IC50 in the test on DU-145 was 3.16 µM; with T47D, 6.37 µM; with HCT-15, 5.63 µM; in the test with HeLa, 14.3 µM.

Regarding `Oc1cccc(-c2cc(-c3ccccc3F)cc(-c3cccc(O)c3)n2)c1`, the inhibition came to 31.1% in test [1] and 10.8% in test [2]. Moreover, the IC50 in the test with DU-145 came out at 11.2 µM; in the test on T47D it was 4.37 µM; in the test on HCT-15 it was 5.3 µM; with HeLa, 16 µM.

Take `Oc1ccc(-c2cc(-c3ccc(F)cc3)cc(-c3ccc(O)cc3)n2)cc1`: the inhibition in test [1] came to 97.1%; in test [2], 42.5%. For the same molecule, the IC50 in the test with DU-145 was 6.03 µM; with T47D, 5.26 µM; in the test on HCT-15, 4.97 µM; in the test with HeLa it was 8.68 µM.

Turning to `Oc1ccc(-c2cc(-c3ccccc3OC(F)(F)F)cc(-c3cccc(O)c3)n2)cc1`, the inhibition in test [1] is 45.2%; in test [2], 4.4%. The IC50 in the test on DU-145 was 7.76 µM; with T47D, 7.3 µM; with HCT-15 it was 2.31 µM; in the test on HeLa, 5.8 µM.
